Key:
Experiment in all cases: relative viability (nuclei count vs DMSO), 5 days (fraction); higher = more cells survive
HCC-15 = test system: HCC-15
Outline: (§1)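 Dosing by pin tool came one day after lung cancer cell lines were seeded in 1536-well plates, using either one drug or a fixed anchor-drug dose plus five library-drug doses (not always all listed) in √10 steps. After 5 days, nuclei were counted on 4× images. Relative viability is treated-well nuclei count divided by vehicle-well nuclei count, and values are medians of duplicate plates.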

NCI-H838 = test system: NCI-H838
Outline: as §1

BEN = test system: BEN
Outline: as §1

NCI-H2342 = test system: NCI-H2342
Outline: as §1

NCI-H647 = test system: NCI-H647
Outline: as §1

NCI-H460 = test system: NCI-H460
Outline: as §1

NCI-H1355 = test system: NCI-H1355
Outline: as §1

NCI-H23 = test system: NCI-H23
Outline: as §1

LU99A = test system: LU99A
Outline: as §1

LCLC-97TM1 = test system: LCLC-97TM1
Outline: as §1

201T = test system: 201T
Outline: as §1

NCI-H1395 = test system: NCI-H1395
Outline: as §1

NCI-H2126 = test system: NCI-H2126
Outline: as §1

NCI-H2405 = test system: NCI-H2405
Outline: as §1

NCI-H322M = test system: NCI-H322M
Outline: as §1

NCI-H650 = test system: NCI-H650
Outline: as §1

EPLC-272H = test system: EPLC-272H
Outline: as §1

HCC-78 = test system: HCC-78
Outline: as §1

NCI-H2085 = test system: NCI-H2085
Outline: as §1

PC-14 = test system: PC-14
Outline: as §1

Molecule `CCNC(=O)c1noc(-c2cc(C(C)C)c(O)cc2O)c1-c1ccc(CN2CCOCC2)cc1` [Luminespib] + NC(=O)Nc1cc(-c2cccc(F)c2)sc1C(=O)N[C@H]1CCCNC1 [AZD7762] (partner 0.2 µM) has a relative viability (HCC-15; first compound 0.002 µM) of 1.11, a relative viability (HCC-15; first compound 0.006325 µM) of 1.11 and a relative viability (HCC-15; first compound 0.02 µM) of 1.36. It also gave a relative viability (HCC-15; first compound 0.06325 µM) of 1.14, a relative viability (HCC-15; first compound 0.2 µM) of 0.247 and a relative viability (NCI-H838; first compound 0.002 µM) of 0.994. The relative viability (NCI-H838; first compound 0.006325 µM) was 0.89, the relative viability (NCI-H838; first compound 0.02 µM) was 0.775 and the relative viability (NCI-H838; first compound 0.06325 µM) was 0.625. The relative viability (NCI-H838; first compound 0.2 µM) was 0.597, the relative viability (BEN; first compound 0.002 µM) was 0.687 and the relative viability (BEN; first compound 0.006325 µM) was 0.669. For the same molecule, the relative viability (BEN; first compound 0.02 µM) was 0.405, the relative viability (BEN; first compound 0.06325 µM) was 0.516 and the relative viability (BEN; first compound 0.2 µM) was 0.272. For the same molecule, the relative viability (NCI-H2342; first compound 0.002 µM) was 0.472, the relative viability (NCI-H2342; first compound 0.006325 µM) was 0.434 and the relative viability (NCI-H2342; first compound 0.02 µM) was 0.371. It also gave a relative viability (NCI-H2342; first compound 0.06325 µM) of 0.492, a relative viability (NCI-H2342; first compound 0.2 µM) of 0.26 and a relative viability (NCI-H647; first compound 0.002 µM) of 0.506. It also gave a relative viability (NCI-H647; first compound 0.006325 µM) of 0.538, a relative viability (NCI-H647; first compound 0.02 µM) of 0.176 and a relative viability (NCI-H647; first compound 0.06325 µM) of 0.0596. For the same molecule, the relative viability (NCI-H647; first compound 0.2 µM) was 0.0506, the relative viability (NCI-H460; first compound 0.002 µM) was 0.679 and the relative viability (NCI-H460; first compound 0.006325 µM) was 0.628. For the same molecule, the relative viability (NCI-H460; first compound 0.02 µM) was 0.717, the relative viability (NCI-H460; first compound 0.06325 µM) was 0.0326 and the relative viability (NCI-H460; first compound 0.2 µM) was 0.0406. It also gave a relative viability (NCI-H1355; first compound 0.002 µM) of 0.822, a relative viability (NCI-H1355; first compound 0.006325 µM) of 0.693 and a relative viability (NCI-H1355; first compound 0.02 µM) of 0.526. The relative viability (NCI-H1355; first compound 0.06325 µM) was 0.324, the relative viability (NCI-H1355; first compound 0.2 µM) was 0.145 and the relative viability (NCI-H23; first compound 0.002 µM) was 0.258. For the same molecule, the relative viability (NCI-H23; first compound 0.006325 µM) was 0.247, the relative viability (NCI-H23; first compound 0.02 µM) was 0.259 and the relative viability (NCI-H23; first compound 0.06325 µM) was 0.133. It also gave a relative viability (NCI-H23; first compound 0.2 µM) of 0.11, a relative viability (LU99A; first compound 0.002 µM) of 0.378 and a relative viability (LU99A; first compound 0.006325 µM) of 0.347. For the same molecule, the relative viability (LU99A; first compound 0.02 µM) was 0.214, the relative viability (LU99A; first compound 0.06325 µM) was 0.0724 and the relative viability (LU99A; first compound 0.2 µM) was 0.0654. For the same molecule, the relative viability (LCLC-97TM1; first compound 0.002 µM) was 0.251, the relative viability (LCLC-97TM1; first compound 0.006325 µM) was 0.22 and the relative viability (LCLC-97TM1; first compound 0.02 µM) was 0.111. The relative viability (LCLC-97TM1; first compound 0.06325 µM) was 0.167, the relative viability (LCLC-97TM1; first compound 0.2 µM) was 0.0727 and the relative viability (201T; first compound 0.002 µM) was 0.621. It also gave a relative viability (201T; first compound 0.006325 µM) of 0.555, a relative viability (201T; first compound 0.02 µM) of 0.525 and a relative viability (201T; first compound 0.06325 µM) of 0.516. It also gave a relative viability (201T; first compound 0.2 µM) of 0.318, a relative viability (NCI-H1395; first compound 0.002 µM) of 0.399 and a relative viability (NCI-H1395; first compound 0.006325 µM) of 0.372. It also gave a relative viability (NCI-H1395; first compound 0.02 µM) of 0.374, a relative viability (NCI-H1395; first compound 0.06325 µM) of 0.343 and a relative viability (NCI-H1395; first compound 0.2 µM) of 0.384. It also gave a relative viability (NCI-H2126; first compound 0.002 µM) of 0.984, a relative viability (NCI-H2126; first compound 0.006325 µM) of 1.01 and a relative viability (NCI-H2126; first compound 0.06325 µM) of 0.846. The relative viability (NCI-H2126; first compound 0.2 µM) was 0.296, the relative viability (NCI-H2405; first compound 0.002 µM) was 0.865 and the relative viability (NCI-H2405; first compound 0.02 µM) was 0.711. The relative viability (NCI-H2405; first compound 0.06325 µM) was 0.167, the relative viability (NCI-H2405; first compound 0.2 µM) was 0.127 and the relative viability (NCI-H322M; first compound 0.002 µM) was 0.585. It also gave a relative viability (NCI-H322M; first compound 0.006325 µM) of 0.485, a relative viability (NCI-H322M; first compound 0.02 µM) of 0.441 and a relative viability (NCI-H322M; first compound 0.06325 µM) of 0.376. It also gave a relative viability (NCI-H322M; first compound 0.2 µM) of 0.391, a relative viability (NCI-H650; first compound 0.002 µM) of 0.93 and a relative viability (NCI-H650; first compound 0.006325 µM) of 0.958. For the same molecule, the relative viability (NCI-H650; first compound 0.02 µM) was 0.587, the relative viability (NCI-H650; first compound 0.06325 µM) was 0.139 and the relative viability (NCI-H650; first compound 0.2 µM) was 0.0919. It also gave a relative viability (EPLC-272H; first compound 0.002 µM) of 0.224, a relative viability (EPLC-272H; first compound 0.006325 µM) of 0.389 and a relative viability (EPLC-272H; first compound 0.02 µM) of 0.193. It also gave a relative viability (EPLC-272H; first compound 0.06325 µM) of 0.0934, a relative viability (EPLC-272H; first compound 0.2 µM) of 0.127 and a relative viability (HCC-78; first compound 0.002 µM) of 0.562. It also gave a relative viability (HCC-78; first compound 0.006325 µM) of 0.591, a relative viability (HCC-78; first compound 0.02 µM) of 0.536 and a relative viability (HCC-78; first compound 0.06325 µM) of 0.497. It also gave a relative viability (HCC-78; first compound 0.2 µM) of 0.333, a relative viability (NCI-H2085; first compound 0.002 µM) of 0.923 and a relative viability (NCI-H2085; first compound 0.006325 µM) of 0.909. It also gave a relative viability (NCI-H2085; first compound 0.02 µM) of 0.694, a relative viability (NCI-H2085; first compound 0.06325 µM) of 0.389 and a relative viability (NCI-H2085; first compound 0.2 µM) of 0.245. The relative viability (PC-14; first compound 0.002 µM) was 0.32, the relative viability (PC-14; first compound 0.006325 µM) was 0.38 and the relative viability (PC-14; first compound 0.02 µM) was 0.179. It also gave a relative viability (PC-14; first compound 0.06325 µM) of 0.102 and a relative viability (PC-14; first compound 0.2 µM) of 0.0933.
